According to patent US7790896B2, “RNA-selective probes for live cell imaging of nuclear structure and function” (New York University, priority 2006, dated 2010):

Legend:
[1] = tested on: 3T3 cells; assay: Cytotoxicity test, MTS assay; type: cell-based
Procedure: Dye DMSO stock solutions were diluted by fresh medium into four desired concentrations ([…], 13.5 μM, 10 μM and 5 μM). Cells were cultured in 96-well plate for 12 hours before experiments. The cell medium was then exchanged with different concentrations of dye medium solutions. Cells were incubated at 37° C. in 5% CO2 for 5, 15, or 24 hours before viability by MTS assay was measured. As for the MTS assay, briefly, 3-(4,5-dimethylthiazol-2-yl)-5-(3-carboxymethoxyphenyl)-2-(4-sulfophenyl)-2H-tetrazolium (MTS) and phenazine methosulfate (PMS) were mixed at a ratio of 20:1 right before the experiments. The cell dye medium solution was exchanged with 80 μL of fresh medium followed by the addition of 20 μL MTS/PMS solution to each well. 100 μM hydrogen peroxide was used as positive control. The cell plates were then incubated at 37° C. in 5% CO2 for 2 hours. Absorbance was measured at 490 nm. The absorbance measured for an untreated cell population under the same experimental conditions was used as the reference point to establish 100% cell viability. Duplicated experiments have been tested.
(20 μM, 13.5 μM, 10 μM, and 5 μM) in A549 and 3T3 cells and the cytotoxicity was measured using standard MTS assay after 5, 15, or 24 hours incubation (FIG. 5A). Generally, there was no toxicity (defined by greater than 50% cell death) associated with any of the dyes at the working concentration (5 μM) after 24 hours incubation. In A549 cell, all three dyes were non-toxic after 24 hours incubation at all concentrations. In 3T3 cells, E144 was non-toxic, but 20 μM of E36 was toxic after 24 hours incubation and 20 μM F22 was toxic after 15 hours incubation. Since the compounds bind to RNA, it is not surprising to see some signs of toxicity at higher concentrations, especially after one doubling period (approximately 22 hours for A549 cells and 20-25 hours for 3T3 cells). […] Additional studies are required to determine if the compounds perturb nucleolar dynamics throughout the cells cycle.

[2] = tested on: RNA (16S- and 23S-ribosomal from E. coli) vs. DNA (salmon testes); assay: RNA vs. DNA selectivity titration in solution; type: binding; details: E36 5 μM, E144 10 μM, F22 10 μM; nucleic acid 0.195 to 200 μg/mL
Procedure: Samples containing 50 μg/mL RNA in TE buffer with an increasing concentration of compound from 0.15 μM to 10 μM. Shown here is the intensity increase recorded at the emission λmax wavelength of each dye. […] The samples contain fixed concentration of dyes (E36: 5 μM; E144: 10 μM; F22: 10 μM) in TE buffer with an increasing concentration of RNA or DNA from 0.19 μg/mL to 200 μg/mL. Data points were in duplicated in individual experiments, and error bars represent standard deviation.
The fluorescence spectra data in the primary screening and selected dyes titration assay study was obtained by Gemini XS plate reader. RNA solution was prepared right before the assay experiments to avoid possible degradation and contamination. In the primary screening, 1 mg/mL RNA (type VI from torula yeast) buffer solution was used. Point scans were carried out first using five Ex/Em point sets ([…], 400/500, 450/550, 500/600, 550/650 nm). Spectra scans were then carried out for the selected dyes. Excitation wavelengths were set at 350 nm, 400 nm, 450 nm, 500 nm, and 550 nm and the emission wavelengths were scanned. RNA (16S- and 23S-ribosomal from E. coli) and DNA (salmon testes) titration experiments and quantum yield/extinction coefficient determination for the three best dyes were carried out by the plate reader as well. Excitation λmax obtained from F-2500 Hitachi Fluorophotometer was used. Absorbance wavelength was determined by SpectraMax Plus^384 absorbance plate reader. […] was chosen as standard and 480 nm was used as excitation wavelength in the scanning for quantum yield determination.
A set of solution assay experiments were then carried out to investigate the dyes' selectivity to bind RNA vs. DNA in vitro. With a fixed concentration of dye (E36 5 μM, E144 10 μM, and F22 10 μM), the fluorescent intensity at various nucleic acid concentrations (0.195 μg/mL to 200 μg/mL) was determined at the appropriate emission λmax wavelength. SYTO®RNASelect (5 μM) and Hoechst 33258 (5 μM) dyes were used as standards for RNA selective and DNA selective dyes (FIG. 3B).

[3] = tested on: 3T3 fibroblast cells, 3T3-L1 adipocyte cells, Hela cells and A549 human lung carcinoma cells; assay: Secondary screening: live cell nuclear imaging properties in four cell lines; type: cell-based, mouse; details: dye 25 μM
Procedure: All cell staining imaging followed the same procedure. Generally, dyes in dry state were first dissolved in DMSO to obtain the stock solution. The stock solutions were then added directly to the cell culture wells to reach the desired concentration. Total DMSO was lower than 0.1%. After adding dyes, cells were incubated at 37° C. in 5% CO2 for 25 minutes. The medium was then removed and cells were rinsed with fresh medium twice. The cells were then imaged at ambient temperature in the medium. Exposure time was kept less than 5 seconds and adjusted to each dye.
The selected compounds from both primary screens (total 88) were resynthesized in large scale and purified. The compounds' live cell nuclear imaging properties were then tested by four cell lines, including two mouse cell lines: 3T3 fibroblast cells and 3T3-L1 adipocyte cells; and two human cancer cell lines: Hela cells and A549 human lung carcinoma cells. Herein, the final dye concentration in each test was decreased to 25 μM and all the experiments were repeated to establish reproducibility. […] Each of the three dyes contained at least one high affinity nucleic acid functional group (Trotta et al., “Solution Structure of DAPI Selectively Bound in the Minor Groove of a DNA T-T Mismatch-Containing Site: NMR and Molecular Dynamics Studies,” Nucleic Acids Res. 26:4706-4713 (1998); Loontiens et al., “Binding Characteristics of Hoechst 33258 with Calf Thymus DNA, Poly[d(A-T)], and d(CCGGAATTCCGG): Multiple Stoichiometries and Determination of Tight Binding with a Wide Spectrum of Site Affinities,” Biochem. 29:9029-9039 (1990); Zipper et al., “Investigations on DNA Intercalation and Surface Binding by SYBR Green I, Its Structure Determination and Methodological Implications,” Nucleic Acid Res. 32:E103 (2004); Glazer et al., “Stable Dye-DNA Intercalation Complexes as Reagents for High-Sensitivity Fluorescence Detection,” Nature 359:859-861 (1992), which are hereby incorporated by reference in their entirety) in building block II such as the terminal secondary amine for F22 and F112, the trimethoxy for E 144, and the indole for E36.

| SMILES | Cytotoxicity (toxic = greater than 50% cell death) ([1]; 20 μM, 15 hours incubation) | Fluorescent intensity response to RNA vs. DNA [2] | Live cell nuclear imaging properties (basis of selection) [3] | Cytotoxicity (toxic = greater than 50% cell death) ([1]; 20, 13.5, 10 and 5 μM, 5, 15 or 24 hours) | Cytotoxicity (toxic = greater than 50% cell death) ([1]; 20 μM, 24 hours incubation) |
| --- | --- | --- | --- | --- | --- |
| COc1ccc2c(ccc(/C=C/c3ccc(N(C)C)cc3)[n+]2C)c1 [Dye F22] | toxic | higher response to RNA than to DNA | selective nucleolar targeting, high fluorescence intensity, low photobleaching, and low cellular toxicity | – | – |
| COc1cc(OC)c(/C=C/c2ccc3ccccc3[n+]2C)c(OC)c1 [Dye E144] | – | almost same binding affinity to both RNA and DNA | selective nucleolar targeting, high fluorescence intensity, low photobleaching, and low cellular toxicity | non-toxic | – |
| C[n+]1c(/C=C/c2c[nH]c3ccccc23)ccc2ccccc21 [Dye E36] | – | higher response to RNA than to DNA | selective nucleolar targeting, high fluorescence intensity, low photobleaching, and low cellular toxicity | – | toxic |
